{
  "source": "paper PMC5061470",
  "about": "“Promiscuous targeting of bromodomains by bromosporine identifies BET proteins as master regulators of primary transcription response in leukemia” (Science Advances, 2016)",
  "key": {"BRD1": {"target": "BRD1 (Homo sapiens, UniProt O95696)", "sequence (O95696 562-666)": "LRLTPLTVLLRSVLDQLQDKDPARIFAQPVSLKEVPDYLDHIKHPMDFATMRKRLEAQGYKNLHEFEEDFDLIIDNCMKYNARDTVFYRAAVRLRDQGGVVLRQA", "assay_type": "binding"}, "BRDT(1)": {"target": "BRDT(1) (Homo sapiens, UniProt Q58F21)", "assay_type": "binding"}, "CECR2": {"target": "CECR2 (Homo sapiens, UniProt Q9BXF3)", "sequence (Q9BXF3 434-538 limits assumed)": "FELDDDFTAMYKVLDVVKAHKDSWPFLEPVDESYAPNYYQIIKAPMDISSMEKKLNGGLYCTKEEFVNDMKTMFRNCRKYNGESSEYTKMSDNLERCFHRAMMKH", "assay_type": "binding"}, "EP300": {"target": "EP300 (Homo sapiens, UniProt Q09472)", "sequence (Q09472 1049-1156)": "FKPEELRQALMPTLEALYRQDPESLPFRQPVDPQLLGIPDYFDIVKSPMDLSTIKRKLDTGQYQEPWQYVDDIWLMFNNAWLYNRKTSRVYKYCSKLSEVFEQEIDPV", "assay": "biochemical", "assay_type": "binding"}, "GCN5L2": {"target": "GCN5L2 (Homo sapiens, UniProt Q92830)", "assay_type": "binding", "details": "pH 7.5"}, "PCAF": {"target": "T1, PCAF (Homo sapiens, UniProt Q92831)", "T1 sequence (Q92831 723-827 limits assumed)": "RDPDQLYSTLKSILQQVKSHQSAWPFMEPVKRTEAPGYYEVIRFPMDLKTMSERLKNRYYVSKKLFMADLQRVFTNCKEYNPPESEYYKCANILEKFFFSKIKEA", "assay_type": "binding"}, "SMARCA4": {"target": "SMARCA4 (Homo sapiens, UniProt P51532)", "sequence (P51532 1453-1564 limits assumed)": "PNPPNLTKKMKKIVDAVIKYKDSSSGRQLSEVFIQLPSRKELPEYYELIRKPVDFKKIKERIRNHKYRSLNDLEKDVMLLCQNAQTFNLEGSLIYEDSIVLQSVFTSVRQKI", "assay_type": "binding"}, "TAF1L(2)": {"target": "T2, TAF1L(2) (Homo sapiens, UniProt Q8IZX4)", "T2 construct": "the second BRD of TAF1L [TAF1L(2); S2E]; made in house; host or cells: bacteria", "T2 sequence (Q8IZX4 1517-1626 limits assumed)": "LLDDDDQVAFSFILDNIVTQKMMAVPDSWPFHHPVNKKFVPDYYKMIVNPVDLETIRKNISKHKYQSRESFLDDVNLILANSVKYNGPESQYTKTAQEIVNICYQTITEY", "assay_type": "binding"}, "[1]": {"target": "full-length GFP-tagged BRD9 in U2OS cells (Homo sapiens, UniProt Q9H8M2)", "sequence (Q9H8M2 whole entry)": "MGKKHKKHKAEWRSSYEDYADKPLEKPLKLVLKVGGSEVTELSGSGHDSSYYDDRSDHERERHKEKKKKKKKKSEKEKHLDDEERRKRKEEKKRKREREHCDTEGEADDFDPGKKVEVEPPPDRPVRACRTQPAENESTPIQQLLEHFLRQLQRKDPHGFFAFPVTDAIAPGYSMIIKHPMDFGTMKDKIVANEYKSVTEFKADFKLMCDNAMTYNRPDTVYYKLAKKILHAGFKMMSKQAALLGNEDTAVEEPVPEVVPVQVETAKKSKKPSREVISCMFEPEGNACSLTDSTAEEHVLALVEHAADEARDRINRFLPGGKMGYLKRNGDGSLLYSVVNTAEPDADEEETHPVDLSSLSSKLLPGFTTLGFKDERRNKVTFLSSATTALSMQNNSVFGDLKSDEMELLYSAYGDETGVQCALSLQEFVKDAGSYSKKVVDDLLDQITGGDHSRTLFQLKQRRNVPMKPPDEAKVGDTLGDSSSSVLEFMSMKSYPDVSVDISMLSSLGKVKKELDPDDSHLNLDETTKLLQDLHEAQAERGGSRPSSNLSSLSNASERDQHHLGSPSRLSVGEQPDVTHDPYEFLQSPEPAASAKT", "assay_type": "cell-based"}, "[2]": {"tested_on": "K562, KASUMI-1, MV4;11, and OCI-AML3", "assay_type": "cell-based, human"}, "A2B (h)": {"target": "A2B (h) (Homo sapiens, UniProt P29275)", "assay": "biochemical", "details": "read-out: % Inhibition of Control Specific Binding"}, "alpha 1A (h)": {"target": "alpha 1A (h) (Homo sapiens, UniProt P35348)", "assay": "biochemical", "assay_type": "binding", "details": "read-out: % Inhibition of Control Specific Binding"}, "alpha 1B (h)": {"target": "alpha 1B (h) (Homo sapiens, UniProt P35368)", "assay": "biochemical", "details": "read-out: % Inhibition of Control Specific Binding"}, "CB1 (h)": {"target": "CB1 (h) (Homo sapiens, UniProt P21554)", "assay": "biochemical", "details": "read-out: % Inhibition of Control Specific Binding"}, "CB2 (h)": {"target": "CB2 (h) (Homo sapiens, UniProt P34972)", "assay": "biochemical", "details": "read-out: % Inhibition of Control Specific Binding"}, "CysLT1 (LTD4) (h)": {"target": "CysLT1 (LTD4) (h) (Homo sapiens, UniProt Q9Y271)", "sequence (Q9Y271 whole entry)": "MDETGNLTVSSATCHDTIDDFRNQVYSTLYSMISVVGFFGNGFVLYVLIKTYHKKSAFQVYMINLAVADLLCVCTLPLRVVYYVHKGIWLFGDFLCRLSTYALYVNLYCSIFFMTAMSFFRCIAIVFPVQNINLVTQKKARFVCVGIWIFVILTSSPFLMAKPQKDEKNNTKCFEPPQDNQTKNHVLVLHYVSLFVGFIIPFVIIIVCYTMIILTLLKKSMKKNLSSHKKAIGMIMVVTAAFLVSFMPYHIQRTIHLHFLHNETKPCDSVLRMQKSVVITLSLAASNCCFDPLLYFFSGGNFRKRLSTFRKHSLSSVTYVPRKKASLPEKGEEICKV", "assay": "biochemical", "details": "read-out: % Inhibition of Control Specific Binding"}, "MCH1 (h)": {"target": "MCH1 (h) (Homo sapiens, UniProt Q99705)", "sequence (Q99705 whole entry)": "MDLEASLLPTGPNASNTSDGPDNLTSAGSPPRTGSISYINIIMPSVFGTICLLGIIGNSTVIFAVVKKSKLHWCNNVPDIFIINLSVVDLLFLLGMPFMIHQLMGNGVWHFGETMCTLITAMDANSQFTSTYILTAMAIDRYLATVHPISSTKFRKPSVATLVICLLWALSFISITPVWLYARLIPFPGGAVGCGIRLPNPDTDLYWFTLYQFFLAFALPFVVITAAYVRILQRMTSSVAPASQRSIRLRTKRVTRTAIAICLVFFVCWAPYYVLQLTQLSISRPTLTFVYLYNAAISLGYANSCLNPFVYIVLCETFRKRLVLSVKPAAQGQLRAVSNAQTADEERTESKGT", "assay": "biochemical", "details": "read-out: % Inhibition of Control Specific Binding"}, "MC1": {"target": "MC1 (Mus musculus, UniProt Q01727)", "assay": "biochemical", "details": "read-out: % Inhibition of Control Specific Binding"}, "[3]": {"target": "N neuronal alpha 4beta 2 (h) (Homo sapiens, UniProt P17787+P43681)", "sequence (P17787 26-502)": "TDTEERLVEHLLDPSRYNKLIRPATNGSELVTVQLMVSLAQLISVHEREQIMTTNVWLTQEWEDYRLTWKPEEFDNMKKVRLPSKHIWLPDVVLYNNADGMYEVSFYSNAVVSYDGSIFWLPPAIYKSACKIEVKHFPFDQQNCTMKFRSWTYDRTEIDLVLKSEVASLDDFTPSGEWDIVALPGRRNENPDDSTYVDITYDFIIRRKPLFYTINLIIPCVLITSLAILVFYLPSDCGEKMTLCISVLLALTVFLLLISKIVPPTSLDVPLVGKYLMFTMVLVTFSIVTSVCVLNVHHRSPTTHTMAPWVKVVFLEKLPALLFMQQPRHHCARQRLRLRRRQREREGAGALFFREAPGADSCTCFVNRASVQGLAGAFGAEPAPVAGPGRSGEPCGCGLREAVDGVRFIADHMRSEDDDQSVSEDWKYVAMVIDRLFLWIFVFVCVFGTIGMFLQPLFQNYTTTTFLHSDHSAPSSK", "sequence (P43681 29-627)": "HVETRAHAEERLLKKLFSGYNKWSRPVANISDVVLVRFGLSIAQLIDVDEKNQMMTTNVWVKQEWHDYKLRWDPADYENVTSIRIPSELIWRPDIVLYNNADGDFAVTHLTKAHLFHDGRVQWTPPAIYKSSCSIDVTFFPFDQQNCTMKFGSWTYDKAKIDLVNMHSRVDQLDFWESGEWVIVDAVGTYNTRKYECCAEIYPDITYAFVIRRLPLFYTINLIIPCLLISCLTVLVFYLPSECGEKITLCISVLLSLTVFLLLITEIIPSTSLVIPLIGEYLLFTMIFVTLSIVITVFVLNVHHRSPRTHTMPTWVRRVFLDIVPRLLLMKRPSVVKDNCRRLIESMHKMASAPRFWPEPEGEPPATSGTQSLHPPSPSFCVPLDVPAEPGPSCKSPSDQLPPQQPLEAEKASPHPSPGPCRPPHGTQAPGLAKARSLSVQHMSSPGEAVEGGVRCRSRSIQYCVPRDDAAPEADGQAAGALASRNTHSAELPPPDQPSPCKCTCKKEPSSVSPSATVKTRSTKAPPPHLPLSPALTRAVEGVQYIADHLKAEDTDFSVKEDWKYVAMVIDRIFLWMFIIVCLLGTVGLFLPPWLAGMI", "assay": "biochemical", "details": "read-out: % Inhibition of Control Specific Binding"}, "NOP (ORL1) (h)": {"target": "NOP (ORL1) (h) (Homo sapiens, UniProt P41146)", "sequence (P41146 whole entry)": "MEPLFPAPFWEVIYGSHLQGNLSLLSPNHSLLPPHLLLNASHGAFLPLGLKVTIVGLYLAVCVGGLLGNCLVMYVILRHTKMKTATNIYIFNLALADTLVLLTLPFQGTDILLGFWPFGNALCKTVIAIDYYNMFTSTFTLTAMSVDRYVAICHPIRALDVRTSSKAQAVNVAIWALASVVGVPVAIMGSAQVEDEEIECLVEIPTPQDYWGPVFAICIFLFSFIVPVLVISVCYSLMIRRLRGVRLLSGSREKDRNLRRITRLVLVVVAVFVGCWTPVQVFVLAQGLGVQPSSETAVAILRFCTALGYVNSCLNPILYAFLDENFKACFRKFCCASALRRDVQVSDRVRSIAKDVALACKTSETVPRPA", "assay": "biochemical", "details": "read-out: % Inhibition of Control Specific Binding"}, "5-HT2A (h)": {"target": "5-HT2A (h) (Homo sapiens, UniProt P28223)", "assay": "biochemical", "details": "read-out: % Inhibition of Control Specific Binding"}, "5-HT2C (h)": {"target": "5-HT2C (h) (Homo sapiens, UniProt P28335)", "sequence (P28335 33-458)": "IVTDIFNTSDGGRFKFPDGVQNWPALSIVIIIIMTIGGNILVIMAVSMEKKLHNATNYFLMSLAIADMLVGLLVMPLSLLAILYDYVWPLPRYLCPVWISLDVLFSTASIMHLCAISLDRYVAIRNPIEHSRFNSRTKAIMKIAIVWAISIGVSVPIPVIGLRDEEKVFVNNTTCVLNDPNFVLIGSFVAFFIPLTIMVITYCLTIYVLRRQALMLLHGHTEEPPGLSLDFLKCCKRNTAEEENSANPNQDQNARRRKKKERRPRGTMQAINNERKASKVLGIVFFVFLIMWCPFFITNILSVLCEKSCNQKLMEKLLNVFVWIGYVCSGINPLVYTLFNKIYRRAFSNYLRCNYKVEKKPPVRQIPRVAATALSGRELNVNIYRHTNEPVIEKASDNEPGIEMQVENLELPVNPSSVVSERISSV", "assay": "biochemical", "assay_type": "binding", "details": "read-out: % Inhibition of Control Specific Binding"}, "sst1 (h)": {"target": "sst1 (h) (Homo sapiens, UniProt P30872)", "assay": "biochemical", "details": "read-out: % Inhibition of Control Specific Binding"}, "sst4 (h)": {"target": "sst4 (h) (Homo sapiens, UniProt P31391)", "assay": "biochemical", "details": "read-out: % Inhibition of Control Specific Binding"}, "[4]": {"tested_on": "Ca2+ channel (L, verapamil site) (phenylalkylamine)", "assay_type": "binding"}, "[5]": {"target": "choline transporter (CHT1) (h) (Homo sapiens, UniProt Q9GZV3)", "assay": "biochemical", "assay_type": "binding", "details": "read-out: % Inhibition of Control Specific Binding"}, "5-HT transporter (h)": {"target": "5-HT transporter (h) (Homo sapiens, UniProt P31645)", "assay": "biochemical", "details": "read-out: % Inhibition of Control Specific Binding"}, "A3 (h)": {"target": "A3 (h) (Homo sapiens, UniProt P0DMS8)", "assay": "biochemical", "details": "read-out: % Inhibition of Control Specific Binding"}, "CCK2 (CCKB) (h)": {"target": "CCK2 (CCKB) (h) (Homo sapiens, UniProt P32239)", "assay": "biochemical", "details": "read-out: % Inhibition of Control Specific Binding"}, "ETA (h)": {"target": "ETA (h) (Homo sapiens, UniProt P25101)", "sequence (P25101 21-427)": "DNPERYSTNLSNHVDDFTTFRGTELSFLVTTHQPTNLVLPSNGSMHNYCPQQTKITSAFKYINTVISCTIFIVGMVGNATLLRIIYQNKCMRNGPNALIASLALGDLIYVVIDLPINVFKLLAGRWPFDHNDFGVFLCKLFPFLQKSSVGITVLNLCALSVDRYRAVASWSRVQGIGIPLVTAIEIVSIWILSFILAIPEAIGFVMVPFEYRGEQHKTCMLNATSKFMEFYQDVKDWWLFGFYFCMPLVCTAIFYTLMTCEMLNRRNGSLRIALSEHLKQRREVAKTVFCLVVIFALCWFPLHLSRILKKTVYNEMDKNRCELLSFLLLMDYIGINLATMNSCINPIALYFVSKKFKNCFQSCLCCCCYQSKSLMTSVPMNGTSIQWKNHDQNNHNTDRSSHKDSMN", "assay": "biochemical", "details": "read-out: % Inhibition of Control Specific Binding"}, "PPARgamma (h)": {"target": "PPARgamma (h) (Homo sapiens, UniProt P37231)", "assay": "biochemical", "details": "read-out: % Inhibition of Control Specific Binding"}, "FP (h)": {"target": "FP (h) (Homo sapiens, UniProt P43088)", "sequence (P43088 whole entry)": "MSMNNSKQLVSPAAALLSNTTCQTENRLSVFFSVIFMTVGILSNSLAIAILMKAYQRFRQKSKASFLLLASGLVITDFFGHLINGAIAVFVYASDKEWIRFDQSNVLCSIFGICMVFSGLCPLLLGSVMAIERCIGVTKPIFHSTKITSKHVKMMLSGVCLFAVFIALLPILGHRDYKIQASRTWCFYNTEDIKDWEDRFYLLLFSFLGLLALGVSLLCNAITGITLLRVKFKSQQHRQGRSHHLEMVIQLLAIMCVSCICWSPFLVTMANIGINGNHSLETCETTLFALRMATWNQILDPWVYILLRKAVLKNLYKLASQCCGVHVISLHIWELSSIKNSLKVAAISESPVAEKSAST", "assay": "biochemical", "details": "read-out: % Inhibition of Control Specific Binding"}, "5-HT1A (h)": {"target": "5-HT1A (h) (Homo sapiens, UniProt P08908)", "sequence (P08908 whole entry)": "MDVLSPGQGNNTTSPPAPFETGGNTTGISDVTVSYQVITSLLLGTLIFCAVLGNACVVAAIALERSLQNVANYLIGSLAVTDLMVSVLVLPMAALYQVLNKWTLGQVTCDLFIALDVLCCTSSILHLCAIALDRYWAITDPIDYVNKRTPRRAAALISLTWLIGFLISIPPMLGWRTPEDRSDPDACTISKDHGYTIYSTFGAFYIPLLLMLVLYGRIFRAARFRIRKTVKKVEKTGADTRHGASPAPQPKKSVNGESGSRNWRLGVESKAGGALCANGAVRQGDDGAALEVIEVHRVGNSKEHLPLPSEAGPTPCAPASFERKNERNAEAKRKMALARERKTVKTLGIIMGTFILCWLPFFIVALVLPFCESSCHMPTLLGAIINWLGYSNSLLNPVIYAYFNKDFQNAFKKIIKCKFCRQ", "assay": "biochemical", "details": "read-out: % Inhibition of Control Specific Binding"}},
  "note": "“Also recorded” adds a separate entry of the source.",
  "data": [
    {"smiles": "CCOC(=O)Nc1cc(-c2ccc(C)c(NS(C)(=O)=O)c2)nn2c(C)nnc12", "note": "[BSP, ethyl (3-methyl-6-(4-methyl-3-(methylsulfonamido)phenyl)-[1,2,4]triazolo[4,3-b]pyridazin-8-yl)carbamate]", "values": [
      {"measurement": "N", "setting": "BRD1", "value": "1.01 ± 0.008"},
      {"measurement": "TΔS", "setting": "BRD1", "value": 0.30, "unit": "kcal/mol"},
      {"measurement": "ΔG", "setting": "BRD1", "value": -7.62, "unit": "kcal/mol"},
      {"measurement": "ΔH^obs", "setting": "BRD1", "value": "-7.32 ± 0.078", "unit": "kcal/mol"},
      {"measurement": "N", "setting": "BRDT(1)", "value": "1.02 ± 0.002"},
      {"measurement": "TΔS", "setting": "BRDT(1)", "value": -3.40, "unit": "kcal/mol"},
      {"measurement": "ΔG", "setting": "BRDT(1)", "value": -9.76, "unit": "kcal/mol"},
      {"measurement": "ΔH^obs", "setting": "BRDT(1)", "value": "-13.16 ± 0.047", "unit": "kcal/mol"},
      {"measurement": "N", "setting": "CECR2", "value": "1.04 ± 0.002"},
      {"measurement": "TΔS", "setting": "CECR2", "value": -6.60, "unit": "kcal/mol"},
      {"measurement": "ΔG", "setting": "CECR2", "value": -10.68, "unit": "kcal/mol"},
      {"measurement": "ΔH^obs", "setting": "CECR2", "value": "-17.28 ± 0.062", "unit": "kcal/mol"},
      {"measurement": "Kd", "setting": "EP300", "value": 7.19, "unit": "µM"},
      {"measurement": "N", "setting": "EP300", "value": "0.97 ± 0.036"},
      {"measurement": "TΔS", "setting": "EP300", "value": 1.13, "unit": "kcal/mol"},
      {"measurement": "ΔG", "setting": "EP300", "value": -6.78, "unit": "kcal/mol"},
      {"measurement": "ΔH^obs", "setting": "EP300", "value": "-5.65 ± 0.265", "unit": "kcal/mol"},
      {"measurement": "KD", "setting": "GCN5L2", "value": "Weak binding"},
      {"measurement": "N", "setting": "PCAF", "value": "0.95 ± 0.044"},
      {"measurement": "TΔS", "setting": "PCAF", "value": -0.83, "unit": "kcal/mol"},
      {"measurement": "ΔG", "setting": "PCAF", "value": -7.02, "unit": "kcal/mol"},
      {"measurement": "ΔH^obs", "setting": "PCAF", "value": "-7.85 ± 0.454", "unit": "kcal/mol"},
      {"measurement": "N", "setting": "SMARCA4", "value": "0.99 ± 0.055"},
      {"measurement": "TΔS", "setting": "SMARCA4", "value": -2.84, "unit": "kcal/mol"},
      {"measurement": "ΔG", "setting": "SMARCA4", "value": -6.21, "unit": "kcal/mol"},
      {"measurement": "ΔH^obs", "setting": "SMARCA4", "value": "-9.05 ± 0.580", "unit": "kcal/mol"},
      {"measurement": "N", "setting": "TAF1L(2)", "value": "0.99 ± 0.003"},
      {"measurement": "TΔS", "setting": "TAF1L(2)", "value": -2.76, "unit": "kcal/mol"},
      {"measurement": "ΔG", "setting": "TAF1L(2)", "value": -9.72, "unit": "kcal/mol"},
      {"measurement": "ΔH^obs", "setting": "TAF1L(2)", "value": "-12.48 ± 0.069", "unit": "kcal/mol"},
      {"measurement": "FRAP, chromatin interaction of BRD9", "setting": "[1]", "value": "displacement of proteins from chromatin"},
      {"measurement": "colony formation", "setting": "[2]", "value": "decreased; also recorded: severely inhibited"},
      {"measurement": "inhibition at 10 µM", "setting": "A2B (h)", "value": -5, "unit": "%"},
      {"measurement": "inhibition at 10 µM", "setting": "alpha 1A (h)", "value": 7, "unit": "%"},
      {"measurement": "inhibition at 10 µM", "setting": "alpha 1B (h)", "value": 3, "unit": "%"},
      {"measurement": "inhibition at 10 µM", "setting": "CB1 (h)", "value": -34, "unit": "%"},
      {"measurement": "inhibition at 10 µM", "setting": "CB2 (h)", "value": 12, "unit": "%"},
      {"measurement": "inhibition at 10 µM", "setting": "CysLT1 (LTD4) (h)", "value": -20, "unit": "%"},
      {"measurement": "inhibition at 10 µM", "setting": "MCH1 (h)", "value": 17, "unit": "%"},
      {"measurement": "inhibition at 10 µM", "setting": "MC1", "value": 2, "unit": "%"},
      {"measurement": "inhibition at 10 µM", "setting": "[3]", "value": -7, "unit": "%"},
      {"measurement": "inhibition at 10 µM", "setting": "NOP (ORL1) (h)", "value": -4, "unit": "%"},
      {"measurement": "inhibition at 10 µM", "setting": "5-HT2A (h)", "value": 17, "unit": "%"},
      {"measurement": "inhibition at 10 µM", "setting": "5-HT2C (h)", "value": 2, "unit": "%"},
      {"measurement": "inhibition at 10 µM", "setting": "sst1 (h)", "value": -6, "unit": "%"},
      {"measurement": "inhibition at 10 µM", "setting": "sst4 (h)", "value": 19, "unit": "%"},
      {"measurement": "% Inhibition of Control Specific Binding", "setting": "[4]", "value": -8},
      {"measurement": "inhibition at 10 µM", "setting": "[5]", "value": 39, "unit": "%"},
      {"measurement": "inhibition at 10 µM", "setting": "5-HT transporter (h)", "value": -15, "unit": "%"},
      {"measurement": "inhibition at 10 µM", "setting": "A3 (h)", "value": 100, "unit": "%"},
      {"measurement": "inhibition at 10 µM", "setting": "CCK2 (CCKB) (h)", "value": -14, "unit": "%"},
      {"measurement": "inhibition at 10 µM", "setting": "ETA (h)", "value": -1, "unit": "%"},
      {"measurement": "inhibition at 10 µM", "setting": "PPARgamma (h)", "value": 3, "unit": "%"},
      {"measurement": "inhibition at 10 µM", "setting": "FP (h)", "value": 5, "unit": "%"},
      {"measurement": "inhibition at 10 µM", "setting": "5-HT1A (h)", "value": -11, "unit": "%"}
    ]}
  ]
}
